Among the data in ChEMBL document CHEMBL5137070, “N-2-(Phenylamino) Benzamide Derivatives as Dual Inhibitors of COX-2 and Topo I Deter Gastrointestinal Cancers via Targeting Inflammation and Tumor Progression” (J Med Chem, 2022) are IC50, inhibition and Activity values, retold here.

One series relates to CT26.WT. Description: Antiproliferative activity against mouse CT26.WT cells assessed as reduction in cell proliferation incubated for 48 hrs by MTT assay. Format: functional, cell-based. (In general: Tetrazolium assays rely on reduction of a dye to a coloured formazan, in cell work by metabolically active cells.)
Series [1] deals with RKO. Description: Antiproliferative activity against human RKO cells assessed as reduction in cell proliferation incubated for 48 hrs by MTT assay. It is filed as functional, cell-based.
The subject of another series is HT-29. Description: Antiproliferative activity against human HT-29 cells assessed as reduction in cell proliferation incubated for 48 hrs by MTT assay. Format: functional, cell-based. Particulars: HT-29, 48 h.
The next series concerns HGC-27. The experiment in a line: Antiproliferative activity against human HGC-27 cells assessed as reduction in cell proliferation incubated for 48 hrs by MTT assay. It is filed as functional, cell-based. Particulars: HGC-27, 48 h.
The next series deals with SGC-7901. The experiment in a line: Antiproliferative activity against human SGC-7901 cells assessed as reduction in cell proliferation incubated for 48 hrs by MTT assay. It is filed as functional, cell-based. Particulars: SGC-7901, 48 h.
Series [2] concerns the target T1, DNA topoisomerase 1 (Homo sapiens) (UniProt P11387).
T1 sequence (whole entry): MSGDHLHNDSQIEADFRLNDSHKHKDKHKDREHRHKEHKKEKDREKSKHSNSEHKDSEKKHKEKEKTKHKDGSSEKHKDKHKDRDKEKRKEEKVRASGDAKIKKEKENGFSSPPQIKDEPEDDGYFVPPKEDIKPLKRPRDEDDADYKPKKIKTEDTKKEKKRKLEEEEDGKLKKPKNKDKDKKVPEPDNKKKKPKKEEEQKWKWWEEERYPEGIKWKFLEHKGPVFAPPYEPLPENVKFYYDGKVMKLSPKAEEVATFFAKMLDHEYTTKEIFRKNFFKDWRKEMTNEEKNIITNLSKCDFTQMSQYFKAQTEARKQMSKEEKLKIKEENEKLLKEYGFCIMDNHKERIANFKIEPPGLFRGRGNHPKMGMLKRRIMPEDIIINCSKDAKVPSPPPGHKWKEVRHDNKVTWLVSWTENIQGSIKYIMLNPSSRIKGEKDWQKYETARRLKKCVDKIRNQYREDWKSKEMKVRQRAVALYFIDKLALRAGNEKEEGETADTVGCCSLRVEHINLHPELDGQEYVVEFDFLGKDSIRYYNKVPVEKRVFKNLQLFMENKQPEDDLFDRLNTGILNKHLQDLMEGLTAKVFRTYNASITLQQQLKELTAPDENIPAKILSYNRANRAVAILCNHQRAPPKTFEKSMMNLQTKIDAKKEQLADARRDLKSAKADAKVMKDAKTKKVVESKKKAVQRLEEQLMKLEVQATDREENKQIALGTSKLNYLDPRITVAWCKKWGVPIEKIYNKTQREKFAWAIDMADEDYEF
The experiment in a line: Inhibition of human topoisomerase I assessed as DNA unwinding using DNA pBR322 as substrate at 2 uM incubated for 30 mins by ethidium bromide staining based agarose gel electrophoresis.

Series [3] concerns RAW264.7. The experiment in a line: Cytotoxicity against mouse RAW264.7 cells assessed as reduction in cell viability at <=11.11 for 24 hrs by MTT assay. It is filed as toxicity, cell-based. The settings on record: raw264.7, 24 h.
Series [4] concerns RKO. The experiment in a line: Anti-migration activity against human RKO cells assessed as inhibition of cell migration at 0.37 uM and measured after 24 hrs by wound healing assay. It is filed as functional, cell-based.
Series [5] has as its system RAW264.7. Description: Antiinflammatory activity in mouse RAW264.7 cells assessed as reduction in LPS-induced COX-2 expression at 6.6 uM incubated for 1 hrs followed by LPS stimulation and measured after 24 hrs by western blot analysis. Format: functional, cell-based. The settings on record: time 25.0 hrs. On the technique in general: Immunoblotting shows a protein as a band on a membrane.

The source made the active and inactive calls. No cut-off for these calls is given here. Some results are limits rather than exact numbers.

On to `Cc1cccc(Nc2ccccc2C(=O)NCc2ccc(O)cc2)c1C`, for which the IC50 (commonly the concentration that gives 50% inhibition) in the series on CT26.WT was more than 100 µM; in the series with RKO [1] it was 17.4 µM; in the series with HT-29, 19.7 µM; in the series on HGC-27, 33.1 µM; with SGC-7901 it was 22.1 µM. Besides, the inhibition (in general, the change of the read-out against control, counted positive when it falls) in series [2] was found to be 19.3%.
Turning to `Cc1c(Cl)cccc1Nc1ccccc1C(=O)NCc1ccc(O)c(O)c1`, the IC50 in the series with CT26.WT is 9.64 µM; with RKO [1], 59.4 µM; in the series with HT-29, 19.5 µM; with HGC-27 it was 16.5 µM; in the series with SGC-7901 it was 59.7 µM. Also, the inhibition in [2] was found to be 55.3%.
On to `Cc1c(Cl)cccc1Nc1ccccc1C(=O)NCc1ccc(O)cc1`, for which the IC50 worked out at 10.5 µM with CT26.WT; 8.32 µM in the series on RKO [1]; 13.5 µM with HT-29; 34.2 µM in the series with HGC-27; 21.1 µM with SGC-7901. Further, the inhibition in series [2] was 35%.
For `Cc1c(Cl)cccc1Nc1ncccc1C(=O)NCc1ccc(O)cc1`, the IC50 in the series on CT26.WT was more than 100 µM; in the series with RKO [1], 23.7 µM; in the series on HT-29 it was 47.3 µM; with HGC-27, 50.2 µM; with SGC-7901 it was 33.9 µM. The inhibition in [2] came out at 6.87%.
With `O=C(NCCCc1ccc(O)cc1)c1ccccc1Nc1ccccc1`, the IC50 with CT26.WT, in the series on RKO [1], in the series on HT-29, in the series with HGC-27 and in the series with SGC-7901 was more than 100 µM in each case. The inhibition in series [2] worked out at 0%.
Consider `Cc1c(Cl)cccc1N(C)c1ccccc1C(=O)NCc1ccc(O)cc1`, for which the IC50 in the series with CT26.WT was more than 100 µM; in the series with RKO [1], more than 100 µM; in the series on HT-29 it was more than 100 µM; in the series with HGC-27, 58 µM; in the series with SGC-7901, 77.7 µM. For the same compound, in series [2], the inhibition is 25.9%.
As for `Cc1c(Cl)cccc1Oc1ccccc1C(=O)NCc1ccc(O)cc1`, the IC50 in the series on CT26.WT is 36.8 µM; with RKO [1], 101 µM; with HT-29 it was more than 100 µM; in the series with HGC-27, 59.4 µM; in the series with SGC-7901 it was 90.4 µM. Further, the inhibition in series [2] is 17.6%.
In the case of `Cc1c(Cl)cccc1Nc1ccccc1C(=O)NCc1ccc(O)c(F)c1`, the IC50 worked out at 11.6 µM in the series with CT26.WT; 5.23 µM with RKO [1]; 26.3 µM in the series with HT-29; 12 µM in the series with HGC-27; 60.8 µM in the series on SGC-7901. Moreover, the inhibition in series [2] stood at 44.7%.
`Cc1c(Cl)cccc1Nc1ccccc1C(=O)NCc1ccc(F)cc1`: the IC50 in the series on CT26.WT is more than 100 µM; in the series with RKO [1] it was 62.4 µM; in the series with HT-29 it was more than 100 µM; with HGC-27, 46.4 µM; with SGC-7901, 51.8 µM. The inhibition in [2] worked out at 24.7%.
Take `Cc1c(Cl)cccc1Nc1ccccc1C(=O)O` [TOLFENAMIC ACID]: the IC50 in the series on CT26.WT, in the series on RKO [1], in the series with HT-29, in the series on HGC-27 and in the series on SGC-7901 was more than 100 µM throughout. In the series with RAW264.7 [3], the Activity was more than 80%.
`Cc1c(Cl)cccc1N(C)c1ccccc1C(=O)NCc1ccc(O)c(F)c1`: the IC50 in the series on CT26.WT is more than 100 µM; in the series on RKO [1], more than 100 µM; in the series on HT-29 it was 52.5 µM; with HGC-27, 88.1 µM; in the series on SGC-7901, 99.9 µM. Also, in [2], the inhibition was 22.3%.
As for `O=C(NCc1ccc(O)cc1)c1ccccc1Nc1cccc(Cl)c1`, the IC50 with CT26.WT turned out to be 38.3 µM; in the series on RKO [1], 24.9 µM; in the series on HT-29 it was 43.8 µM; in the series with HGC-27, 26.4 µM; in the series on SGC-7901, 32.7 µM. Also, the inhibition in series [2] came out at 26.7%.
`Cc1c(Cl)cccc1Nc1ccccc1C(=O)NCc1cccc(O)c1`: the IC50 in the series with CT26.WT came to 8.52 µM; with RKO [1], 6.97 µM; in the series on HT-29 it was 33.6 µM; in the series on HGC-27, 2.41 µM; in the series with SGC-7901 it was 8.92 µM. Moreover, in series [2], the inhibition was found to be 37.4%.
Regarding `O=C(NCCc1ccc(O)cc1)c1ccccc1Nc1ccccc1`, the IC50 in the series on CT26.WT was 67.8 µM; with RKO [1], more than 100 µM; in the series on HT-29, 44.5 µM; in the series on HGC-27, 92.5 µM; in the series with SGC-7901, 60.4 µM. Besides, the inhibition in series [2] was 13.8%.
As for `CC[C@@]1(O)C(=O)OCc2c1cc1n(c2=O)Cc2cc3ccccc3nc2-1` [CAMPTOTHECIN], the IC50 in the series with CT26.WT turned out to be 0.43 µM; with RKO [1], 0.0617 µM; with HT-29, 1.37 µM; with HGC-27, 0.166 µM; in the series with SGC-7901, 5.8 µM. For the same compound, the result in the series on RKO [4] was Active.
For the compound `O=C(NCc1ccc(O)cc1)c1ccccc1Nc1ccccc1`, the 50% inhibitory concentration (IC50) with CT26.WT was more than 100 µM; with RKO [1], 69.9 µM; with HT-29 it was 50.9 µM; in the series with HGC-27 it was 54.8 µM; with SGC-7901, 61 µM. The inhibition in series [2] was 37.3%.
With `Cc1ccc(Nc2cccc(Cl)c2C)c(C(=O)NCc2ccc(O)c(F)c2)c1`, the IC50 in the series with CT26.WT was more than 100 µM; with RKO [1], 50.6 µM; in the series with HT-29, 16.2 µM; with HGC-27, 56.8 µM; in the series with SGC-7901, 62.1 µM. Besides, the inhibition in [2] turned out to be 19.7%.
On to `OCc1ccc(O)cc1` [PARAHYDROXYBENZYL ALCOHOL], for which the IC50 with CT26.WT, with RKO [1], in the series with HT-29, in the series with HGC-27 and with SGC-7901 was more than 100 µM each time.
For `Cc1c(Cl)cccc1Nc1ccccc1C(=O)NCc1ccccc1O`, the IC50 with CT26.WT is more than 100 µM; in the series with RKO [1], 32.7 µM; in the series on HT-29, 51.4 µM; in the series with HGC-27, 46.9 µM; in the series on SGC-7901, 38 µM. Further, the inhibition in series [2] is 15.2%.
On to `COc1ccc(NC(=O)c2ccccc2Nc2cccc(Cl)c2C)cc1`, for which the IC50 is 11 µM with CT26.WT; 3.69 µM in the series on RKO [1]; 5.97 µM in the series with HT-29; 2.32 µM in the series on HGC-27; 5.75 µM in the series on SGC-7901. For the same compound, the inhibition in series [2] came to 2.55%. Also, the outcome with RKO [4] and in the series on RAW264.7 [5] was Active.
Take `Cc1ccc(Cl)c(Nc2ccccc2C(=O)NCc2ccc(O)cc2)c1Cl`: the IC50 came out at 83.4 µM in the series with CT26.WT; 28.9 µM in the series with RKO [1]; 23.7 µM in the series on HT-29; 35.2 µM with HGC-27; 20.5 µM with SGC-7901. Besides, the inhibition in [2] came out at 5.57%.
With `O=C(Nc1ccc(O)cc1)c1ccccc1Nc1ccccc1`, the IC50 with CT26.WT is 52.8 µM; in the series with RKO [1], 66.7 µM; in the series on HT-29, 72.9 µM; in the series on HGC-27 it was 74.8 µM; in the series with SGC-7901 it was 61.4 µM. The inhibition in series [2] was 8.56%.
Consider `Cc1c(Cl)cccc1Nc1ccccc1C(=O)NCc1cccc2c1OCO2`, for which the IC50 in the series on CT26.WT is more than 100 µM; with RKO [1], 26.9 µM; in the series with HT-29, 22.5 µM; in the series with HGC-27, 27.7 µM; with SGC-7901 it was 41.9 µM. In series [2], the inhibition came out at 3.51%.
